Pest or weed control, YFM and YFM rating data for 17 compounds are collected here from patent publication US20250228239A1, “MOLECULES HAVING PESTICIDAL UTILITY, AND INTERMEDIATES, COMPOSITIONS, AND PROCESSES, RELATED THERETO” (priority 2024, published 2025).

Like-named read-outs stand apart in the source and are kept apart here.

What all share (type): in vivo
For experiment [1], the system named is Beet Armyworm (Spodoptera exigua, LAPHEG). Put plainly: Bioassays on Beet Armyworm (BAW), 128-well diet tray assay. Conditions: Spodoptera exigua. Put shortly: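 One to five second-instar larvae per well on artificial diet surface-treated with 50 μg/cm^2 test molecule (applied in 90:10 acetone-water, dried), eight wells per compound. Trays held vented at 25° C., 14:10 light-dark for five to seven days; percent mortality averaged over the eight wells.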

Experiment [2] concerns Yellow Fever Mosquito (Aedes aegypti, AEDSAE). Conditions: for YFM rating: Table ABC / ABC-DP rating. Put shortly:
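Mortality after 3 days at room temperature is the read-out, scored well by well and converted to a rating. Test molecules came from 4000 ppm stocks in DMSO, further diluted in 90:10 water/acetone, and were exposed to roughly 1-day-old larvae suspended in liver-powder water.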

For experiment [3], the system named is Cabbage Looper (Trichoplusia ni, TRIPNI). Put plainly: Bioassays on Cabbage Looper (CL), 128-well diet tray assay. Conditions: Trichoplusia ni. Put shortly: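 Each of eight wells receives artificial diet treated at 50 μg/cm^2 with the test molecule, then one to five second-instar larvae. Incubation runs five to seven days at 25° C with a 14:10 light-dark cycle under vented covers. Mortality is scored per well as a percentage and averaged.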

[4] abbreviates: Table ABC: Biological Results, species BAW, read-out: BAW.
[5] abbreviates: Table ABC: Biological Results, species YFM.
Where [6] appears, read: Table ABC: Biological Results, species CL, read-out: CL.
The mark [7] stands for this setting: Beet Armyworm, rating class, read-out: BAW.
The mark [8] stands for this setting: Yellow Fever Mosquito, rating class.
Where [9] appears, read: Cabbage Looper, rating class, read-out: CL.
Setting [10] is: Beet Armyworm, Table ABC / ABC-DP rating, read-out: BAW rating.
Where [11] appears, read: Cabbage Looper, Table ABC / ABC-DP rating, read-out: CL rating.

As to `O=C(Nc1ccc(F)c(Br)c1)c1cc(NC(=O)[C@H]2[C@H](c3cc(Cl)cc(Cl)c3)C2(Cl)Cl)ccc1Cl` (relative stereo) [F1304, trans-N-(3-bromo-4-fluorophenyl)-2-chloro-5-(2,2-dichloro-3-(3,5-dichlorophenyl)cyclopropane-1-carboxamido)benzamide], the pest or weed control at 50 µg/cm2 in experiment [1] (setting [4]) and in experiment [3] (setting [6]) was 50 to 100% in each case. Moreover, the YFM entry in experiment [2] (setting [5]) is listed as “A (80–100)”.

For the compound `O=C(CC(F)(F)F)Nc1c(F)ccc(NC(=O)c2cc(NC(=O)[C@H]3[C@H](c4ccc(Cl)c(Cl)c4)C3(Cl)Cl)ccc2Cl)c1F` [F1418, 2-Chloro-5-((1R,3R)-2,2-dichloro-3-(3,4-dichlorophenyl)cyclopropane-1-carboxamido)-N-(2,4-difluoro-3-(3,3,3-trifluoropropanamido)phenyl)benzamide], the pest or weed control at 50 µg/cm2 in experiment [1] (setting [7]) and in experiment [3] (setting [9]) was 50 to 100% each time. Further, in experiment [2] (setting [8]), the YFM entry was “A (80–100)”.

`CCCC(OCC)C(=O)Nc1c(F)ccc(NC(=O)c2cc(NC(=O)[C@H]3[C@H](c4ccc(F)c(C(F)(F)F)c4)C3(Cl)Cl)ccc2Cl)c1F` (stereo partly drawn) [F1759, 2-Chloro-5-((1R,3R)-2,2-dichloro-3-(4-fluoro-3-(trifluoromethyl)phenyl)cyclopropane-1-carboxamido)-N-(3-(2-ethoxypentanamido)-2,4-difluorophenyl)benzamide]: the pest or weed control at 50 µg/cm2 in experiment [1] (setting [7]) and in experiment [3] (setting [9]) was 50 to 100% each time. Also, the YFM result in experiment [2] (setting [8]) is “A (80–100)”.

Regarding `CCNC(=O)c1cc(NC(=O)[C@H]2[C@H](c3ccc(F)c(Cl)c3)C2(Cl)Cl)cc(C)c1F` (relative stereo) [F2029, trans-5-(2,2-Dichloro-3-(3-chloro-4-fluorophenyl)cyclopropane-1-carboxamido)-N-ethyl-2-fluoro-3-methylbenzamide], the pest or weed control at 50 µg/cm2 in experiment [1] (setting [10]) and in experiment [3] (setting [11]) was 50 to 100% throughout. The YFM rating result in experiment [2] (Yellow Fever Mosquito) is reported as “A (80–100)”.

Regarding `O=C(Nc1ccc(F)c(NC(=O)C(F)(F)Cl)c1F)c1cc(NC(=O)[C@H]2[C@H](c3cc(Cl)c(Cl)c(Cl)c3)C2(Cl)Cl)ccc1Cl` [F1686, 2-Chloro-N-(3-(2-chloro-2,2-difluoroacetamido)-2,4-difluorophenyl)-5-((1R,3R)-2,2-dichloro-3-(3,4,5-trichlorophenyl)cyclopropane-1-carboxamido)benzamide], the pest or weed control at 50 µg/cm2 in experiment [1] (setting [7]) and in experiment [3] (setting [9]) was 50 to 100% throughout. The YFM result in experiment [2] (setting [8]) is “A (80–100)”.

On to `O=C(Nc1ccc(F)c(NC(=O)C(F)(F)C(F)F)c1F)c1cc(NC(=O)[C@H]2[C@H](c3cc(F)cc(C(F)(F)F)c3)C2(Cl)Cl)ccc1Cl` [F1707, 2-Chloro-5-((1R,3R)-2,2-dichloro-3-(3-fluoro-5-(trifluoromethyl)phenyl)cyclopropane-1-carboxamido)-N-(2,4-difluoro-3-(2,2,3,3-tetrafluoropropanamido)phenyl)benzamide], for which the pest or weed control at 50 µg/cm2 in experiment [1] (setting [7]) and in experiment [3] (setting [9]) was 50 to 100% in each case. For the same compound, the YFM entry in experiment [2] (setting [8]) is “A (80–100)”.

In the case of `Nc1c(F)ccc(NC(=O)c2cc(NC(=O)[C@H]3[C@H](c4cccc(S(F)(F)(F)(F)F)c4)C3(Cl)Cl)ccc2Cl)c1F` (relative stereo) [F1143, trans-N-(3-Amino-2,4-difluorophenyl)-2-chloro-5-(2,2-dichloro-3-(3-(pentafluoro-λ^6-sulfanyl)phenyl)cyclopropane-1-carboxamido)benzamide], the pest or weed control at 50 µg/cm2 in experiment [1] (setting [4]) and in experiment [3] (setting [6]) was 50 to 100% each time. The YFM result in experiment [2] (setting [5]) is “A (80–100)”.

For `Nc1ccc(NC(=O)c2cc(NC(=O)[C@H]3[C@H](c4ccc(F)c(Cl)c4)C3(Cl)Cl)ccc2Cl)cc1Cl` (relative stereo) [F1370, trans-N-(4-Amino-3-chlorophenyl)-2-chloro-5-(2,2-dichloro-3-(3-chloro-4-fluorophenyl)cyclopropane-1-carboxamido)benzamide], the pest or weed control at 50 µg/cm2 in experiment [1] (setting [4]) and in experiment [3] (setting [6]) was 50 to 100% in each case. In experiment [2] (setting [5]), the YFM entry is reported as “A (80–100)”.

Take `Cc1cc(NC(=O)C(F)(F)F)ccc1NC(=O)c1cc(NC(=O)[C@H]2[C@H](c3ccc(Cl)c(Cl)c3)C2(Cl)Cl)ccc1Cl` (relative stereo) [F1061, trans-2-Chloro-5-(2,2-dichloro-3-(3,4-dichlorophenyl)cyclopropane-1-carboxamido)-N-(2-methyl-4-(2,2,2-trifluoroacetamido)phenyl)benzamide]: the pest or weed control at 50 µg/cm2 in experiment [1] (setting [4]) and in experiment [3] (setting [6]) was 50 to 100% each time. Also, in experiment [2] (setting [5]), the YFM entry is “A (80–100)”.

Regarding `O=C(Nc1ccc(F)c(NC(=O)C(Br)CC(F)(F)F)c1F)c1cc(NC(=O)[C@H]2[C@H](c3ccc(F)c(C(F)(F)F)c3)C2(Cl)Cl)ccc1Cl` (stereo partly drawn) [F1831, N-(3-(2-Bromo-4,4,4-trifluorobutanamido)-2,4-difluorophenyl)-2-chloro-5-((1R,3R)-2,2-dichloro-3-(4-fluoro-3-(trifluoromethyl)phenyl)cyclopropane-1-carboxamido)benzamide], the pest or weed control at 50 µg/cm2 in experiment [1] (setting [10]) and in experiment [3] (setting [11]) was 50 to 100% each time. The YFM rating result in experiment [2] (Yellow Fever Mosquito) is on record as “A (80–100)”.

As for `CC(=O)N(C)NC(=O)c1cc(NC(=O)[C@H]2[C@H](c3cc(Cl)cc(Cl)c3)C2(Cl)Cl)ccc1Cl` (relative stereo) [F2522, trans-N-(3-(2-Acetyl-2-methylhydrazine-1-carbonyl)-4-chlorophenyl)-2,2-dichloro-3-(3,5-dichlorophenyl)cyclopropane-1-carboxamide], the pest or weed control at 50 µg/cm2 in experiment [1] (setting [10]) and in experiment [3] (setting [11]) was 50 to 100% throughout. Further, the YFM rating result in experiment [2] (Yellow Fever Mosquito) is on record as “A (80–100)”.

`O=C(CCCC(F)(F)F)Nc1c(F)ccc(NC(=O)c2cc(NC(=O)[C@H]3[C@H](c4ccc(F)c(C(F)(F)F)c4)C3(Cl)Cl)ccc2Cl)c1F` [F1830, 2-Chloro-5-((1R,3R)-2,2-dichloro-3-(4-fluoro-3-(trifluoromethyl)phenyl)cyclopropane-1-carboxamido)-N-(2,4-difluoro-3-(5,5,5-trifluoropentanamido)phenyl)benzamide]: the pest or weed control at 50 µg/cm2 in experiment [1] (setting [10]) and in experiment [3] (setting [11]) was 50 to 100% each time. Moreover, the YFM rating entry in experiment [2] (Yellow Fever Mosquito) is reported as “A (80–100)”.

For `O=C(CC1CC1)Nc1c(F)ccc(NC(=O)c2cc(NC(=O)[C@H]3[C@H](c4cc(Cl)c(Cl)c(Cl)c4)C3(Cl)Cl)ccc2Cl)c1F` [F1653, 2-Chloro-N-(3-(2-cyclopropylacetamido)-2,4-difluorophenyl)-5-((1R,3R)-2,2-dichloro-3-(3,4,5-trichlorophenyl)cyclopropane-1-carboxamido)benzamide], the pest or weed control at 50 µg/cm2 in experiment [1] (setting [7]) and in experiment [3] (setting [9]) was 50 to 100% each time. For the same compound, the YFM result in experiment [2] (setting [8]) is on record as “A (80–100)”.

`O=C(NCC(F)(F)F)c1cc(NC(=O)[C@H]2[C@@H](c3cc(C(F)(F)F)cc(Cl)c3F)C2(Cl)Cl)ccc1Cl` (relative stereo) [F2013, cis-2-Chloro-5-(2,2-dichloro-3-(3-chloro-2-fluoro-5-(trifluoromethyl)phenyl)cyclopropane-1-carboxamido)-N-(2,2,2-trifluoroethyl)benzamide]: the pest or weed control at 50 µg/cm2 in experiment [1] (setting [10]) and in experiment [3] (setting [11]) was 50 to 100% each time. The YFM rating entry in experiment [2] (Yellow Fever Mosquito) is “A (80–100)”.

As for `Cc1c(Cl)cc(NC(=O)[C@H]2[C@H](c3ccc(F)c(Cl)c3)C2(Cl)Cl)cc1C(=O)NCCCCl` (relative stereo) [F2044, trans-3-Chloro-N-(3-chloropropyl)-5-(2,2-dichloro-3-(3-chloro-4-fluorophenyl)cyclopropane-1-carboxamido)-2-methylbenzamide], the pest or weed control at 50 µg/cm2 in experiment [1] (setting [10]) and in experiment [3] (setting [11]) was 50 to 100% each time. Also, in experiment [2] (Yellow Fever Mosquito), the YFM rating entry is on record as “A (80–100)”.

In the case of `Nc1ccc(F)c(NC(=O)c2cc(NC(=O)[C@H]3[C@H](c4ccc(F)c(C(F)(F)F)c4)C3(Cl)Cl)ccc2Cl)c1F` [F1391, N-(3-Amino-2,6-difluorophenyl)-2-chloro-5-((1R,3R)-2,2-dichloro-3-(4-fluoro-3-(trifluoromethyl)phenyl)cyclopropane-1-carboxamido)benzamide], the pest or weed control at 50 µg/cm2 in experiment [1] (setting [4]) and in experiment [3] (setting [6]) was 50 to 100% throughout. Also, the YFM entry in experiment [2] (setting [5]) is on record as “A (80–100)”.

With `O=C(Nc1cc(NC(=O)C(F)F)c(F)cc1F)c1cc(NC(=O)[C@H]2[C@H](c3ccc(F)c(C(F)(F)F)c3)C2(Cl)Cl)ccc1F` [F1558, 5-((1R,3R)-2,2-Dichloro-3-(4-fluoro-3-(trifluoromethyl)phenyl)cyclopropane-1-carboxamido)-N-(5-(2,2-difluoroacetamido)-2,4-difluorophenyl)-2-fluorobenzamide], the pest or weed control at 50 µg/cm2 in experiment [1] (setting [7]) and in experiment [3] (setting [9]) was 50 to 100% in each case. In addition, the YFM result in experiment [2] (setting [8]) is “A (80–100)”.
